# Patent US9326506B2, “Preparation method, agricultural composition and applications of natural brassinolide analogs” (CHENGDU NEWSUN CROPSCIENCE CO., LTD, priority 2012, dated 2016)
# Tested on: rice
# Assay: Low temperature assay on rice seedlings
# Format: in vivo
# Experimental: According to a low temperature assay, we measured parameters including plant height, number of leaf, area of leaf, number of tiller, weight of root at low temperature to completely determine effects of the natural brassinolide analogues on the resistance to low temperature of a plant.
# The natural brassinolide analogues, BR1, BR2, BR3, BR4, BR5 and BR6, used herein, were those prepared by the method of Example 1. Respectively the analogues were dissolved into 95% (V/V) ethanol solution, and then diluted with pure water to 1 mg/L, 0.1 mg/L, 0.01 mg/L, 0.001 mg/L and 0.0001 mg/L. In addition, pure water was used as a control.
# After rice seeds were disinfected by using 5% sodium hypochlorite solution treatment, they were rinsed with distilled water until their pH>7, placed into a petri dish in a dark incubator, and cultured by using water at 30° C.±2° C. for 9 days. Then respectively the nine-day-old etiolated seedlings of rice were immersed in the above solutions containing different concentrations of the natural brassinolide analogues or pure water, and cultured at the temperature of 1° C., 2° C., 3° C., 4° C. and 5° C. for 24 hr. The parameters including plant height, area of leaf and weight of root after 3, 6, 9 and 12 days and number of leaf and number of tiller after 12 days were measured.
structure (smiles),measurement,setting,value
CC(C)[C@H](C)[C@@H](O)[C@H](O)[C@@H](C)[C@H]1CCC2C3CC(=O)C4C[C@H](O)CC[C@]4(C)C3CC[C@@]21C (stereo partly shown) [BR4],Height,"0.01 mg/l, 3 °C, 9 days",7.5 cm
same,Weight of root,"0.01 mg/l, 3 °C, 9 days",2.9 g
same,Area of leaf,"0.01 mg/l, 3 °C, 12 days",13.2 cm^2
same,Height,"0.01 mg/l, 3 °C, 12 days",7.8 cm
same,Number of leaf,"0.01 mg/l, 3 °C, 12 days",3
same,Number of tiller,"0.01 mg/l, 3 °C, 12 days",2
same,Weight of root,"0.01 mg/l, 3 °C, 12 days",2.9 g
same,Area of leaf,"0.01 mg/l, 4 °C, 3 days",10.8 cm^2
same,Height,"0.01 mg/l, 4 °C, 3 days",7 cm
same,Weight of root,"0.01 mg/l, 4 °C, 3 days",2.5 g
same,Area of leaf,"0.01 mg/l, 4 °C, 6 days",12.4 cm^2
same,Height,"0.01 mg/l, 4 °C, 6 days",7.4 cm
same,Weight of root,"0.01 mg/l, 4 °C, 6 days",2.7 g
same,Area of leaf,"0.01 mg/l, 4 °C, 9 days",13 cm^2
same,Height,"0.01 mg/l, 4 °C, 9 days",7.7 cm
same,Weight of root,"0.01 mg/l, 4 °C, 9 days",2.9 g
same,Area of leaf,"0.01 mg/l, 4 °C, 12 days",13.5 cm^2
same,Height,"0.01 mg/l, 4 °C, 12 days",7.8 cm
same,Number of leaf,"0.01 mg/l, 4 °C, 12 days",3
same,Number of tiller,"0.01 mg/l, 4 °C, 12 days",2
same,Weight of root,"0.01 mg/l, 4 °C, 12 days",3.0 g
same,Area of leaf,"0.01 mg/l, 5 °C, 3 days",10.3 cm^2
same,Height,"0.01 mg/l, 5 °C, 3 days",7.2 cm
same,Weight of root,"0.01 mg/l, 5 °C, 3 days",2.8 g
same,Area of leaf,"0.01 mg/l, 5 °C, 6 days",13.1 cm^2
same,Height,"0.01 mg/l, 5 °C, 6 days",7.4 cm
same,Weight of root,"0.01 mg/l, 5 °C, 6 days",3.0 g
same,Area of leaf,"0.01 mg/l, 5 °C, 9 days",16.4 cm^2
same,Height,"0.01 mg/l, 5 °C, 9 days",7.8 cm
same,Weight of root,"0.01 mg/l, 5 °C, 9 days",3.4 g
same,Area of leaf,"0.01 mg/l, 5 °C, 12 days",17 cm^2
same,Height,"0.01 mg/l, 5 °C, 12 days",8.2 cm
same,Number of leaf,"0.01 mg/l, 5 °C, 12 days",4
same,Number of tiller,"0.01 mg/l, 5 °C, 12 days",3
same,Weight of root,"0.01 mg/l, 5 °C, 12 days",3.9 g
same,Area of leaf,"0.1 mg/l, 1 °C, 3 days",10 cm^2
same,Height,"0.1 mg/l, 1 °C, 3 days",7.1 cm
same,Weight of root,"0.1 mg/l, 1 °C, 3 days",2.8 g
same,Area of leaf,"0.1 mg/l, 1 °C, 6 days",11 cm^2
same,Height,"0.1 mg/l, 1 °C, 6 days",7.2 cm
same,Weight of root,"0.1 mg/l, 1 °C, 6 days",2.9 g
same,Area of leaf,"0.1 mg/l, 1 °C, 9 days",12.1 cm^2
same,Height,"0.1 mg/l, 1 °C, 9 days",7.3 cm
same,Weight of root,"0.1 mg/l, 1 °C, 9 days",3.3 g
same,Area of leaf,"0.1 mg/l, 1 °C, 12 days",13.1 cm^2
same,Height,"0.1 mg/l, 1 °C, 12 days",7.3 cm
same,Number of leaf,"0.1 mg/l, 1 °C, 12 days",3
same,Number of tiller,"0.1 mg/l, 1 °C, 12 days",3
same,Weight of root,"0.1 mg/l, 1 °C, 12 days",3.6 g
same,Area of leaf,"0.1 mg/l, 2 °C, 3 days",10.2 cm^2
same,Height,"0.1 mg/l, 2 °C, 3 days",7.1 cm
same,Weight of root,"0.1 mg/l, 2 °C, 3 days",2.8 g
same,Area of leaf,"0.1 mg/l, 2 °C, 6 days",11.2 cm^2
same,Height,"0.1 mg/l, 2 °C, 6 days",7.1 cm
same,Weight of root,"0.1 mg/l, 2 °C, 6 days",3.1 g
same,Area of leaf,"0.1 mg/l, 2 °C, 9 days",12.6 cm^2
same,Height,"0.1 mg/l, 2 °C, 9 days",7.3 cm
same,Weight of root,"0.1 mg/l, 2 °C, 9 days",3.1 g
same,Area of leaf,"0.1 mg/l, 2 °C, 12 days",13.2 cm^2
same,Height,"0.1 mg/l, 2 °C, 12 days",7.4 cm
same,Number of leaf,"0.1 mg/l, 2 °C, 12 days",3
same,Number of tiller,"0.1 mg/l, 2 °C, 12 days",3
same,Weight of root,"0.1 mg/l, 2 °C, 12 days",3.2 g
same,Area of leaf,"0.1 mg/l, 3 °C, 3 days",10.5 cm^2
same,Height,"0.1 mg/l, 3 °C, 3 days",7.3 cm
same,Weight of root,"0.1 mg/l, 3 °C, 3 days",2.5 g
same,Area of leaf,"0.1 mg/l, 3 °C, 6 days",12 cm^2
same,Height,"0.1 mg/l, 3 °C, 6 days",7.4 cm
same,Weight of root,"0.1 mg/l, 3 °C, 6 days",2.7 g
same,Area of leaf,"0.1 mg/l, 3 °C, 9 days",12.1 cm^2
same,Height,"0.1 mg/l, 3 °C, 9 days",7.8 cm
same,Weight of root,"0.1 mg/l, 3 °C, 9 days",2.7 g
same,Area of leaf,"0.1 mg/l, 3 °C, 12 days",13.4 cm^2
same,Height,"0.1 mg/l, 3 °C, 12 days",7.9 cm
same,Number of leaf,"0.1 mg/l, 3 °C, 12 days",3
same,Number of tiller,"0.1 mg/l, 3 °C, 12 days",2
same,Weight of root,"0.1 mg/l, 3 °C, 12 days",2.9 g
same,Area of leaf,"0.1 mg/l, 4 °C, 3 days",10.6 cm^2
same,Height,"0.1 mg/l, 4 °C, 3 days",7.3 cm
same,Weight of root,"0.1 mg/l, 4 °C, 3 days",2.5 g
same,Area of leaf,"0.1 mg/l, 4 °C, 6 days",12 cm^2
same,Height,"0.1 mg/l, 4 °C, 6 days",7.4 cm
same,Weight of root,"0.1 mg/l, 4 °C, 6 days",2.6 g
same,Area of leaf,"0.1 mg/l, 4 °C, 9 days",13.2 cm^2
same,Height,"0.1 mg/l, 4 °C, 9 days",7.8 cm
same,Weight of root,"0.1 mg/l, 4 °C, 9 days",2.9 g
same,Area of leaf,"0.1 mg/l, 4 °C, 12 days",13.4 cm^2
same,Height,"0.1 mg/l, 4 °C, 12 days",8 cm
same,Number of leaf,"0.1 mg/l, 4 °C, 12 days",3
same,Number of tiller,"0.1 mg/l, 4 °C, 12 days",2
same,Weight of root,"0.1 mg/l, 4 °C, 12 days",3.1 g
same,Area of leaf,"0.1 mg/l, 5 °C, 3 days",11 cm^2
same,Height,"0.1 mg/l, 5 °C, 3 days",7.4 cm
same,Weight of root,"0.1 mg/l, 5 °C, 3 days",2.9 g
same,Area of leaf,"0.1 mg/l, 5 °C, 6 days",12.1 cm^2
same,Height,"0.1 mg/l, 5 °C, 6 days",7.5 cm
same,Weight of root,"0.1 mg/l, 5 °C, 6 days",3.1 g
same,Area of leaf,"0.1 mg/l, 5 °C, 9 days",16.2 cm^2
same,Height,"0.1 mg/l, 5 °C, 9 days",8 cm
same,Weight of root,"0.1 mg/l, 5 °C, 9 days",3.5 g
same,Area of leaf,"0.1 mg/l, 5 °C, 12 days",17.8 cm^2
same,Height,"0.1 mg/l, 5 °C, 12 days",8.1 cm
same,Number of leaf,"0.1 mg/l, 5 °C, 12 days",3
same,Number of tiller,"0.1 mg/l, 5 °C, 12 days",2
same,Weight of root,"0.1 mg/l, 5 °C, 12 days",4.1 g
same,Area of leaf,"1 mg/l, 1 °C, 3 days",10 cm^2
same,Height,"1 mg/l, 1 °C, 3 days",6.8 cm
same,Weight of root,"1 mg/l, 1 °C, 3 days",2.6 g
same,Area of leaf,"1 mg/l, 1 °C, 6 days",11 cm^2
same,Height,"1 mg/l, 1 °C, 6 days",7 cm
same,Weight of root,"1 mg/l, 1 °C, 6 days",3.1 g
same,Area of leaf,"1 mg/l, 1 °C, 9 days",12.4 cm^2
same,Height,"1 mg/l, 1 °C, 9 days",7.1 cm
same,Weight of root,"1 mg/l, 1 °C, 9 days",3.2 g
same,Area of leaf,"1 mg/l, 1 °C, 12 days",13 cm^2
same,Height,"1 mg/l, 1 °C, 12 days",7.7 cm
same,Number of leaf,"1 mg/l, 1 °C, 12 days",3
same,Number of tiller,"1 mg/l, 1 °C, 12 days",3
same,Weight of root,"1 mg/l, 1 °C, 12 days",3.7 g
same,Area of leaf,"1 mg/l, 2 °C, 3 days",10.1 cm^2
same,Height,"1 mg/l, 2 °C, 3 days",7 cm
same,Weight of root,"1 mg/l, 2 °C, 3 days",2.55 g
same,Area of leaf,"1 mg/l, 2 °C, 6 days",11.7 cm^2
same,Height,"1 mg/l, 2 °C, 6 days",7.2 cm
same,Weight of root,"1 mg/l, 2 °C, 6 days",3.0 g
same,Area of leaf,"1 mg/l, 2 °C, 9 days",12 cm^2
same,Height,"1 mg/l, 2 °C, 9 days",7.4 cm
same,Weight of root,"1 mg/l, 2 °C, 9 days",3.2 g
same,Area of leaf,"1 mg/l, 2 °C, 12 days",13 cm^2
same,Height,"1 mg/l, 2 °C, 12 days",8 cm
same,Number of leaf,"1 mg/l, 2 °C, 12 days",3
same,Number of tiller,"1 mg/l, 2 °C, 12 days",3
same,Weight of root,"1 mg/l, 2 °C, 12 days",3.7 g
same,Area of leaf,"1 mg/l, 3 °C, 3 days",10.4 cm^2
same,Height,"1 mg/l, 3 °C, 3 days",7 cm
same,Weight of root,"1 mg/l, 3 °C, 3 days",2.5 g
same,Area of leaf,"1 mg/l, 3 °C, 6 days",12 cm^2
same,Height,"1 mg/l, 3 °C, 6 days",7.5 cm
same,Weight of root,"1 mg/l, 3 °C, 6 days",2.6 g
same,Area of leaf,"1 mg/l, 3 °C, 9 days",12 cm^2
same,Height,"1 mg/l, 3 °C, 9 days",7.7 cm
same,Weight of root,"1 mg/l, 3 °C, 9 days",2.6 g
same,Area of leaf,"1 mg/l, 3 °C, 12 days",13.2 cm^2
same,Height,"1 mg/l, 3 °C, 12 days",8.1 cm
same,Number of leaf,"1 mg/l, 3 °C, 12 days",3
same,Number of tiller,"1 mg/l, 3 °C, 12 days",2
same,Weight of root,"1 mg/l, 3 °C, 12 days",2.9 g
same,Area of leaf,"1 mg/l, 4 °C, 3 days",10.7 cm^2
same,Height,"1 mg/l, 4 °C, 3 days",7.3 cm
same,Weight of root,"1 mg/l, 4 °C, 3 days",2.5 g
same,Area of leaf,"1 mg/l, 4 °C, 6 days",12 cm^2
same,Height,"1 mg/l, 4 °C, 6 days",7.5 cm
same,Weight of root,"1 mg/l, 4 °C, 6 days",2.7 g
same,Area of leaf,"1 mg/l, 4 °C, 9 days",13.2 cm^2
same,Height,"1 mg/l, 4 °C, 9 days",7.8 cm
same,Weight of root,"1 mg/l, 4 °C, 9 days",3.0 g
same,Area of leaf,"1 mg/l, 4 °C, 12 days",14 cm^2
same,Height,"1 mg/l, 4 °C, 12 days",8.2 cm
same,Number of leaf,"1 mg/l, 4 °C, 12 days",3
same,Number of tiller,"1 mg/l, 4 °C, 12 days",2
same,Weight of root,"1 mg/l, 4 °C, 12 days",3.2 g
same,Area of leaf,"1 mg/l, 5 °C, 3 days",11.1 cm^2
same,Height,"1 mg/l, 5 °C, 3 days",7.4 cm
same,Weight of root,"1 mg/l, 5 °C, 3 days",2.9 g
same,Area of leaf,"1 mg/l, 5 °C, 6 days",13 cm^2
same,Height,"1 mg/l, 5 °C, 6 days",7.4 cm
same,Weight of root,"1 mg/l, 5 °C, 6 days",3.5 g
same,Area of leaf,"1 mg/l, 5 °C, 9 days",18 cm^2
same,Height,"1 mg/l, 5 °C, 9 days",8.1 cm
same,Weight of root,"1 mg/l, 5 °C, 9 days",3.7 g
same,Area of leaf,"1 mg/l, 5 °C, 12 days",20 cm^2
same,Height,"1 mg/l, 5 °C, 12 days",8.3 cm
same,Number of leaf,"1 mg/l, 5 °C, 12 days",3
same,Number of tiller,"1 mg/l, 5 °C, 12 days",2
same,Weight of root,"1 mg/l, 5 °C, 12 days",4.5 g
